Common to all, as to format: in vivo
The nature of experiment [1]: Taste testing in water by a panel of experienced tasters. From the text:
The taste testing was made by a panel of experienced tasters.

Experiment [2] in a line: Isointensity (R-index) of 20 ppm Compound 13 in water, alone and with 7% sucrose, versus sucrose solutions. From the text: The sweet enhancement effect of Compound 13 is illustrated in the following tables: the isointensity of Compound 13 at 20 ppm equals 0.5% sucrose. The isointensity of 7% sucrose with 20 ppm 1-(2-hydroxyphenyl)-3-(pyridin-4-yl)propan-1-one is 8% sucrose. Therefore, the perceived enhancement of sucrose is about 0.5% sucrose (8%-7.5%). This sweet enhancement effect is also observed with consumable products containing other natural and artificial sweeteners, for example, carbohydrates; sucrose, lactose, D-glucose, D-tagatose, D-fructose whether naturally- or synthetically-produced, erythritol, threitol, arabitol, ribitol, xylitol, sorbitol, mannitol, maltitol, isomaltitol, dulcitol, and lactitol, thaumatin, glycin, D-phenylalanine, D-tryptophan, sodium cyclamate, acesulfam K, neohesperidine dihydrochalcone, sodium salt of saccharin, aspartame, superaspartame, neotam, alitam, sucralose, and stevioside.

Experiment [3] can be described thus: Flavorist evaluation of how Compound 13 modifies a flavor in water and in application. An excerpt:
Evaluation Data on the Compound of Example 13, showing how it Modifies a Flavor in Water and in Application.
Strawberry A=candy strawberry. Strawberry B=green strawberry. Strawberry C=floral strawberry. Strawberry D=fruity strawberry.

Experiment [4] is described as follows: Sweet isointensity against sugar solutions by a testing panel. How it is done:
The sweet isointensity was tested against a variety of sugar solutions by a testing panel.

Experiment [5] in a line: Sweetness in plain non-fat yoghurt by a trained panel. The settings on record: 5% sugar and 25 ppm of the compound in plain non-fat yoghurt. How it is done: 5% sugar and 25 ppm of the compound were added to plain non-fat yoghurt. A trained panel compared this to a series of plain non-fat yoghurts to which 5%, 6% 7% and 8% sugar had been added.
The mark [6] stands for this setting: 7% sucrose + 20 ppm Cmpd 13 in water vs. 7% sucrose.
The mark [7] stands for this setting: 7% sucrose + 20 ppm Cmpd 13 in water vs. 8% sucrose.
[8] abbreviates: 7% sucrose + 20 ppm Cmpd 13 in water vs. 9% sucrose.
[9] abbreviates: 7% sucrose + 20 ppm Cmpd 13 in water vs. 10% sucrose.
The mark [10] stands for this setting: 20 ppm Compound 13 in water vs. 0.5% sucrose.
Where [11] appears, read: 20 ppm Compound 13 in water vs. 1% sucrose.

Structures are written as SMILES.

Turning to `COc1ccc(CCC(=O)c2ccccc2O)cn1` [Example 1, 1-(2-hydroxyphenyl)-3-(6-methoxypyridin-3-yl)propan-1-one], the “Taste results in water” value is listed as “very weak sweet” in experiment [1] (5 ppm); “weakly sweet” in experiment [1] (20 ppm); “very strong sweet, weak bitter taste” in experiment [1] (100 ppm).
In the case of `COc1cccc(CCC(=O)c2ccccc2O)n1` [Example 2, 1-(2-hydroxyphenyl)-3-(6-methoxypyridin-2-yl) propan-1-one], the “Taste results in water” value in experiment [1] (10 ppm) is given as “Slightly sweet/bitter”; in experiment [1] (100 ppm), “sweet, bitter, slight fruity”.
In the case of `COc1ncccc1CCC(=O)c1ccccc1O` [Example 3, 1-(2-hydroxyphenyl)-3-(2-methoxypyridin-3-yl)propan-1-one], the “Taste results in water” value in experiment [1] (1 ppm) was “Very weak sweet”; in experiment [1] (10 ppm) it was “Very weak sweet”; in experiment [1] (50 ppm), “bitter, weakly sweet and burning”.
`Cc1ncsc1CCC(=O)c1ccccc1O` [Example 4, 1-(2-hydroxyphenyl)-3-(4-methylthiazol-5-yl)propan-1-one]: the “Taste results in water” value is given as “petroleum, sulfur” in experiment [1] (0.1 to 1 ppm); “very weak sweet, brothy” in experiment [1] (10 ppm); “sweet, brothy, gassy, bitter, linger” in experiment [1] (100 ppm).
Regarding `Cc1cc(CCC(=O)c2ccccc2O)no1` [Example 6, 1-(2-hydroxyphenyl)-3-(5-methylisoxazol-3-yl)propan-1-one], the “Taste results in water” value in experiment [1] (0.1 ppm) is recorded as “slightly bitter”; in experiment [1] (1 ppm) it was “slightly bitter, weakly sweet”; in experiment [1] (10 ppm), “brothy, umami, soapy, irritating, garlic”; in experiment [1] (100 ppm), “umami, bitter, soapy, garlic”.
`O=C(CCc1cccnc1)c1ccccc1O` [Example 7, 1-(2-hydroxyphenyl)-3-(pyridin-3-yl)propan-1-one]: the “Taste results in water” value in experiment [1] (0.1 ppm) is “nothing”; in experiment [1] (1 ppm) it was “very weak sweet, astringent”; in experiment [1] (10 ppm), “waxy, delayed sweet, astringent”; in experiment [1] (100 ppm), “weak sweet, chemical, bitter”.
Consider `O=C(CCc1ccco1)c1ccccc1O` [Example 8, 3-(furan-2-yl)-1-(2-hydroxyphenyl)propan-1-one], for which the “Taste results in water” value in experiment [1] (0.01 ppm) was “nothing”; in experiment [1] (0.1 ppm), “soap, delayed sweet”; in experiment [1] (1 ppm) it was “soap, umami, bitter”; in experiment [1] (10 ppm) it was “licorice aroma, soapy, weak sweet, bitter, vegetable, terpen”; in experiment [1] (100 ppm), “bitter, licorice aroma, weak sweet, celery, umami, brothy”.
On to `Cc1csc(CCC(=O)c2ccccc2O)n1` [Example 11, 1-(2-hydroxyphenyl)-3-(4-methylthiazol-2-yl)propan-1-one], for which the “Taste results in water” value was “nothing” in experiment [1] (0.01 ppm); “very weak bitter” in experiment [1] (0.1 ppm); “astringent, bitter” in experiment [1] (1 ppm); “bitter, astringent” in experiment [1] (10 ppm); “bitter, terpen, weak sweet” in experiment [1] (100 ppm).
As to `O=C(CCc1ccccn1)c1ccccc1O` [Example 12, 1-(2-hydroxyphenyl)-3-(pyridin-2-yl)propan-1-one], the “Taste results in water” value was “umami” in experiment [1] (1 ppm); “high umami like taste” in experiment [1] (10 ppm); “strong umami, slightly bitter” in experiment [1] (100 ppm).
As for `O=C(CCc1ccncc1)c1ccccc1O` [Example 13, 1-(2-hydroxyphenyl)-3-(pyridin-4-yl)propan-1-one], the R-index in experiment [2] (setting [6]) was 66%; in experiment [2] (setting [7]) it was 43%; in experiment [2] (setting [8]), 8%; in experiment [2] (setting [9]), 4%; in experiment [2] (setting [10]), 61%; in experiment [2] (setting [11]), 14%. Besides, the sample sweetness entry was “sweeter” in experiment [2] (setting [6]); “isosweet” in experiment [2] (setting [7]); “less” in experiment [2] (setting [8]); “less” in experiment [2] (setting [9]); “isosweet” in experiment [2] (setting [10]); “less sweet” in experiment [2] (setting [11]). Also, the isointensity was found to be 8 % sucrose in experiment [2] (7% sucrose with 20 ppm compound) and 0.5 % sucrose in experiment [2] (20 ppm in water). Also, the “perceived enhancement of sucrose” value in experiment [2] (20 ppm in 7% sucrose (8%-7.5%)) is “about 0.5 % sucrose”. The “Taste results in water” value in experiment [1] (0.01 ppm to 0.1 ppm) was “nothing”; in experiment [1] (1 ppm), “weak sweet”; in experiment [1] (10 ppm) it was “sweet”; in experiment [1] (100 ppm) it was “very sweet, licorice linger”. The “Flavorist Evaluation” value in experiment [3] (2% milk, 20 ppm compound 13) is reported as “Slight change in profile, Sweeter than control”; in experiment [3] (Cereal, 50% reduced sugar + 20 ppm of compound 13) it was “Not lingering, more brown notes, roasted,”; in experiment [3] (Cereal, 50% reduced sugar + 20 ppm of compound 13 + 100 ppm of Sweet Flavor B), “Nice, works well, more close to sugar taste,”; in experiment [3] (Cereal, 50% reduced sugar + 50 ppm of compound 13), “Sweeter than 50% reduced control, better”; in experiment [3] (Strawberry yoghurt, 3% fat, 7% sugar, Strawberry flavour D @ 0.1% + 10 ppm of compound 13) it was “Fruity, slightly fermented, caramellic, green”; in experiment [3] (Strawberry yoghurt, 3% fat, 7% sugar, Strawberry flavour D @ 0.1% + 25 ppm of compound 13) it was “Fruity, sweet, fermented, caramellic, apple like”. Besides, the “Flavorist Evaluation” value in experiment [3] (Strawberry yoghurt, 3% fat, 7% sugar, Strawberry flavour D @ 0.1% + 50 ppm of compound 13) is given as “Fermented, sweet, brown, caramellic, overripe”; in experiment [3] (Vanilla ice cream, 8% vegetable fat, Vanilla flavour A @ 0.5% + 10 ppm of compound 13) it was “creamy, vanillic, sweet, slightly cooked”; in experiment [3] (Vanilla ice cream, 8% vegetable fat, Vanilla flavour A @ 0.5% + 15 ppm of compound 13) it was “creamy, sweet, vanillic, lingering sweet vanilla”; in experiment [3] (Vanilla ice cream, 8% vegetable fat, Vanilla flavour A @ 0.5% + 30 ppm of compound 13), “sweet, vanillic, lingering sweet vanilla”; in experiment [3] (Water, 7% sugar + 20 ppm of compound 13), “Sweeter than 7% sugar, little floral, fuller, slight”; in experiment [3] (Water, 7% sugar + 50 ppm of compound 13), “Sweeter than above, very close to 9% sugar-”. Further, the “Flavorist Evaluation” value is reported as “Sweeter than control, not effecting acidity,” in experiment [3] (Water, 7% sugar with 0.105% Citric acid + 20 ppm of compound 13); “Sweeter than sample at 20 ppm, musty, clean,” in experiment [3] (Water, 7% sugar with 0.105% Citric acid + 50 ppm of compound 13); “Green character remains but softer, sweeter” in experiment [3] (Water, Strawberry A @ 0.2% + 20 ppm compound 13); “Sweeter, less green, jammer, maltol-like note,” in experiment [3] (Water, Strawberry B @ 0.2% + 20 ppm compound 13); “Less green, less floral, burnt sugar caramel” in experiment [3] (Water, Strawberry C @ 0.2% + 20 ppm compound 13); “Sweet grape character with the acidic middle” in experiment [3] (Water, Sweetness Improver Flavor A + 5 ppm compound 13 in 25% sugar reduction Grape Type Drink).
As to `O=C(CCc1nccs1)c1ccccc1O` [Example 15, 1-(2-hydroxyphenyl)-3-(thiazol-2-yl)propan-1-one], the “Taste results in water” value is “delayed umami aftertaste” in experiment [1] (0.01 ppm); “delayed umami aftertaste” in experiment [1] (0.1 ppm); “weak plastic, soap, umami, astringent” in experiment [1] (1 ppm); “astringent. strong umami, weak soap, slight bitter” in experiment [1] (10 ppm); “bitter. umami” in experiment [1] (100 ppm).
Consider `COc1ccc(CCC(=O)c2ccc(O)cc2O)cn1` [Example 18], for which the “Taste results in water” value in experiment [1] (100 ppm) was 100 ppm, sweet.
On to `Cl.O=C(CCc1ccncc1)c1ccccc1O` [Example 21, 4-(3-(2-hydroxyphenyl)-3-oxopropyl)pyridinium chloride], for which the “sweet isointensity (isosweet to)” value in experiment [4] (30 ppm) is recorded as 0.75 % sucrose; in experiment [4] (35 ppm), 1.0 % sucrose; in experiment [4] (40 ppm), 1.25 % sucrose. In addition, the sweetness equivalent in experiment [4] (30 ppm of the compound + 7% sucrose) was 8.5 % sucrose. Besides, the “isosweet to” value in experiment [5] is 6.5 % sugar.

The values are drawn from patent US8715761B2, “Flavor molecules” (Givaudan S.A., priority 2008, dated 2014).
